According to patent US5744450A, “GnRH analogs” (The Salk Institute for Biological Studies, priority 1995, dated 1998):

Test system: LH release

CCNC(=O)[C@@H]1CCCN1C(=O)[C@H](CCCNC(=N)N)NC(=O)[C@H](CC(C)C)NC(=O)[C@@H](Cc1ccc(Nc2n[nH]c(N)n2)cc1)NC(=O)[C@H](Cc1ccc(O)cc1)NC(=O)[C@H](CO)NC(=O)[C@H](Cc1c[nH]c2ccccc12)NC(=O)[C@H](Cc1c[nH]cn1)NC(=O)[C@@H]1CCC(=O)N1 [Peptide 130A, pGlu-His-Trp-Ser-Tyr-D-Aph(3-amino-1,2,4-triazole)-Leu-Arg-Pro-NHCH2 CH3]
potency relative to native GnRH: about 79 times that of native GnRH
